{"source": "patent US9771585B2", "about": "“miR-155 inhibitors for treating cutaneous T cell lymphoma (CTCL)” (miRagen Therapeutics, Inc., priority 2015, dated 2017)", "assay_type_in_all_cases": "cell-based, human", "key": {"[1]": {"test_system": "miR-155", "assay": "Dual luciferase reporter assay with miR-155 binding site in HeLa cells", "conditions": "2 nM oligonucleotide, 10 nM miR-155 mimic, 50 ng reporter", "excerpt": "To assess the activity of a miR-155 inhibitor, a dual luciferase reporter assay system was used. In brief, the binding site for miR-155 was cloned into the 3′ UTR of the Renilla luciferase gene located within the commercially-available psiCHECK-2 vector system (Promega). In the absence of a miR-155 inhibitor, the expression of Renilla luciferase protein is repressed by a miR-155 mimic. In the presence of a miR-155 inhibitor, the expression of Renilla luciferase protein is de-repressed. […] Expression of either Renilla or firefly luciferase is measured through detection of light emitted by the luciferase protein.\n50 ng of the dual luciferase reporter plasmid containing the miR-155 binding site was transfected into HeLa cells without a miR-155 mimic (“Reporter” only), with 10 nM miR-155 mimic (“Reporter+mimic”), with 10 nM miR-155 mimic and 2 nM of the control oligonucleotide, or with 10 nM miR-155 mimic and 2 nM of a test miR-155 oligonucleotide inhibitor of 11-14 nucleotide lengths (Table 4). The miR-155 mimic was purchased from Dharmacon (miRIDIAN microRNA Human hsa-miR-155-5p mimic; Accession number MIMAT0000646; catalog # C-300647-05-0005) and contains the mature miRNA sequence: -[…]-(SEQ ID NO: 121). The control oligonucleotide used in the experiment had the following sequence: 5′-1Cs.dTs.dAs.1Gs.dAs.1As.dAs.1Gs.1As.dGs.1Ts.dAs.1Gs.1A-3′ (SEQ ID NO: 122)."}, "[2]": {"test_system": "My-La cells", "assay": "Caspase 3/7 activity in My-La cells", "conditions": "compared to compound 3", "excerpt": "(§1) FIGS. 17A and 17B show proliferation and activation of caspase 3/7 over time with compounds 3 (SEQ ID NO: 23) and 4 (SEQ ID NO: 25)."}, "[3]": {"test_system": "HuT102 and MyLa cell lines", "assay": "Cellular proliferation of CTCL cells after passive uptake", "conditions": "compared to compound 3", "description": "(§2) Passive uptake of antimiR-155 compounds by CTCL cells produced a significant reduction in cellular proliferation and induced programmed cell death.\n(§3) Since the level of ATP correlates directly with cell number, ATP was measured to determine the cell number. […] The reduction in cell number was accompanied by an increase in apoptosis as measured by caspase 3/7 activity (FIG. 14B). The caspase 3 and 7 proteins are members of the cysteine aspartic acid-specific protease (caspase) family. The caspase family plays key effector roles in apoptosis in mammalian cells. Caspase activity was normalized to ATP levels, as all cells have a low level of basal caspase activity that can confound the results if not normalized appropriately."}, "[4]": {"test_system": "miR-155-5p", "assay": "Whole genome expression profiling of mycosis fungoides cell lines (MJ, HuT102, MyLa)", "description": "To gain a more complete understanding of the molecular consequences of miR-155 inhibition in mycosis fungoides cell lines, whole genome transcriptome profiling was performed on MJ and HuT102 cell lines treated with antimiR-155 compounds 3 (SEQ ID NO: 23) or 4 (SEQ ID NO: 25) for 4 days (96 hours) or 8 days. The statistically-significant gene expression signature was defined by one-way ANOVA for antimiR-treated cells compared to untreated cells at the same time point. […] The fold-change results are shown in FIGS. 9 and 10 as heat maps, as described for FIG. 2.\n(§4) The activity of antimiR-155 compound 4 (SEQ ID NO: 25) was further investigated by treating the third mycosis fungoides cell line, MyLa, with compound 4 (SEQ ID NO: 25) for 4 days and 8 days and profiling the changes in gene expression. To test the specificity of compound 4 (SEQ ID NO: 25), cells of the Sézary syndrome cell line (HuT78) were treated with compound 4 (SEQ ID NO: 25) for 8 days and the changes in gene expression were profiled. Genes that are statistically changed with a false discovery rate (FDR) corrected p-value of <0.05 in response to compound 4 (SEQ ID NO: 25) in three mycosis fungoides cell lines, HuT102, MJ, and My-La, are depicted in the heat map as described above. The total number of genes in the heat map is 324."}, "[5]": {"test_system": "HuT102 cells", "assay": "Apoptosis (caspase 3/7 activity) in HuT102 cells", "description": "as §3\nHuT102 cells were treated with 0.25 μM SAHA and 10 μM compound 3 (SEQ ID NO: 23) or 4 (SEQ ID NO: 25), individually or in combination. Cells were harvested daily to measure ATP levels and caspase 3/7 activity. A similar experiment was performed with 0.50 μM SAHA."}, "[6]": {"test_system": "miR-155-5p", "assay": "Whole genome expression profiling of Sézary syndrome cell line HuT78", "conditions": "8 days", "description": "as §4"}, "[7]": {"test_system": "HuT102 cells", "assay": "Proliferation (cell number by ATP level) of HuT102 cells", "conditions": "HuT-102 cells over time; compared with bexarotene", "description": "as §3"}, "[8]": {"test_system": "miR-155-5p", "assay": "Real time PCR of miR-155 direct target genes (four-gene signature) in mycosis fungoides cell lines MJ, HuT102, My-La", "conditions": "for gene expression signature of four direct miR-155-5p targets versus untreated cells: MJ and HuT102 cells, 10 μM, 72 hours; for target de-repression: both HuT102 and MyLa cell lines, compared to compound 3; for antimiR activity by four-gene signature (Bach1, Jarid2, Picalm, Ship1): cumulative across 2, 10 and 50 μM and three mycosis fungoides cell lines, compared to compounds 1 and 3", "description": "CTCL cell lines were cultured in complete growth medium with the addition of antimiR-155 compound 1 (SEQ ID NO: 27), compound 2 (SEQ ID NO: 22), compound 3 (SEQ ID NO: 23), and compound 4 (SEQ ID NO: 25) at concentrations ranging from 2 μM to 50 μM. The antimiRs were added to the medium without any additional components to enhance cellular uptake. Cells were harvested after 72 hours of treatment and total RNA was purified. Real time PCR was performed for 13 direct gene targets of miR-155 (Worm et al. 2009; O'Connell et al. 2010; Zhang et al. 2012; and miRagen unpublished data). The relative fold-change in the expression of the 13 genes in the antimiR-treated cells compared to the untreated cells was calculated. […] Four predicted direct targets that lacked expression in at least one cell line were omitted. The gene expression fold-changes were log10-transformed, plotted on a grayscale, representing the highest relative increase in gene expression, and conversely, the greatest reduction in gene expression.\nFour direct gene targets of miR-155-5p (Bach1, Jarid2, Picalm, and Ship1) were chosen for additional analysis, as these four genes were modulated by antimiR-155 in all three mycosis fungoides cell lines (MJ, HuT102, and My-La). These genes were chosen to represent the gene expression signature for antimiR activity in vitro. Additionally, the four-gene signature was used to compare the activity of the antimiR compounds. These gene changes were reproducible over three independent experiments with cells of varying passage numbers. FIGS. 3, 4, 5, 6, and 7 show the fold-change results of this four-gene signature in the HuT102, MJ, HH, My-La, and Hut78 cell lines, respectively. * p-value <0.0001 vs untreated by nonparametric Mann-Whitney test. The Mann-Whitney test was chosen because the variances are unequal between the treatments compared to untreated cells.\nThe control oligonucleotide was a 14-nucleotide antimiR targeting a C. elegans miRNA not expressed in mammals (control 1). The second oligo is a scramble of the 14-nucleotide sequence of antimiR-155 compound 4 (control 2). The MJ and HuT102 cell lines were incubated with 10 μM antimiR-155 compounds 3 (SEQ ID NO: 23) or 4 (SEQ ID NO: 25) or the two control oligos for 72 hours."}, "[9]": {"test_system": "HuT102 and MyLa cell lines", "assay": "Programmed cell death (apoptosis) of CTCL cells after passive uptake", "conditions": "compared to compound 3", "description": "as §2, §3"}, "[10]": {"test_system": "My-La cells", "assay": "Proliferation of My-La cells", "conditions": "compared to compound 3", "excerpt": "as §1"}}, "note": "l = locked nucleic acid (LNA); d = 2'-deoxy (DNA)"}
{"substance": "5′-1Cs.dTs.dAs.1Gs.dAs.1As.dAs.1Gs.1As.dGs.1Ts.dAs.1Gs.1A-3′ (CTAGAAAGAGTAGA; LNA/DNA mix, phosphorothioate backbone; miR-155 control oligo 11317; (1)..(14) May be joined through phosphorothioate bonds; modified_base (1)..(1) May be locked nucleic acid cytidine; modified_base (4)..(4) May be locked nucleic acid guanosine; modified_base (6)..(6) May be locked nucleic acid adenosine; modified_base (8)..(8) May be locked nucleic acid guanosine; modified_base (9)..(9) May be locked nucleic acid adenosine; modified_ba) [control oligonucleotide, control oligonucleotide used in the dual luciferase reporter experiment]", "values": [{"measurement": "de-repression of Renilla luciferase expression", "setting": "[1]", "result": "did not de-repress the expression of luciferase"}]}
{"substance": "5′-lCs.dAs.lCs.dGs.dAs.lTs.lTs.dAs.lGs.dCs.lAs.lTs.lTs.lA-3′ (CACGATTAGCATTA; sugars from the 5' end ldlddlldldllll, all phosphorothioate, methylation of C not given here) [compound 4]", "values": [{"measurement": "activation of caspase 3/7 over time", "setting": "[2]", "result": "greater activity"}, {"measurement": "inhibition of proliferation", "setting": "[3]", "result": "greater inhibition of proliferation"}, {"measurement": "genes up-regulated or down-regulated in all three mycosis fungoides cell lines", "setting": "[4]; Day 4 and Day 8 signatures combined, Table 2", "result": 587, "unit": "genes"}, {"measurement": "magnitude of gene regulation", "setting": "[4]; MJ and HuT102, day 4 and day 8, heat map intensity", "result": "greater magnitude of gene regulation"}, {"measurement": "apoptosis (caspase 3/7 activity) in combination with SAHA", "setting": "[5]; HuT102, 10 μM compound combined with 0.25 or 0.5 μM SAHA, compared to each treatment alone", "result": "increased apoptosis"}, {"measurement": "induction of apoptosis (caspase 3/7 activity normalized to ATP)", "setting": "[5]; HuT-102 cells over time, compared with bexarotene", "result": "greater induction of apoptosis than bexarotene"}, {"measurement": "change in gene expression", "setting": "[6]", "result": "did not show much change in the gene expression"}, {"measurement": "effect on cell number (ATP)", "setting": "[7]", "result": "comparable to that seen with bexarotene"}, {"measurement": "gene expression signature of four direct miR-155-5p targets versus untreated cells", "setting": "[8]", "result": "statistically significantly different from that of untreated cells"}, {"measurement": "target de-repression", "setting": "[8]", "result": "greater target de-repression"}, {"measurement": "antimiR activity by four-gene signature (Bach1, Jarid2, Picalm, Ship1)", "setting": "[8]", "result": "more active"}, {"measurement": "apoptotic activity", "setting": "[9]", "result": "greater apoptotic activity"}, {"measurement": "proliferation over time", "setting": "[10]", "result": "greater activity"}]}
{"substance": "5′-lCs.dGs.lAs.lTs.lTs.dAs.lGs.dCs.lAs.lTs.lTs.lA-3′ (CGATTAGCATTA; sugars from the 5' end ldllldldllll, all phosphorothioate, methylation of C not given here) [compound 3]", "values": [{"measurement": "gene expression signature of four direct miR-155-5p targets versus untreated cells", "setting": "[8]", "result": "statistically significantly different from that of untreated cells"}]}
{"substance": "5′-lCs.dGs.lAs.lTs.lTs.lAs.lGs.dCs.lAs.lTs.lTs.lA-3′ (CGATTAGCATTA; sugars from the 5' end l1 d1 l5 d1 l4, all phosphorothioate, methylation of C not given here) [compound 2]", "values": [{"measurement": "inhibition of proliferation", "setting": "[3]", "result": "greater inhibition of proliferation"}, {"measurement": "target de-repression", "setting": "[8]", "result": "greater target de-repression"}, {"measurement": "antimiR activity by four-gene signature (Bach1, Jarid2, Picalm, Ship1)", "setting": "[8]", "result": "more active"}, {"measurement": "apoptotic activity", "setting": "[9]", "result": "greater apoptotic activity"}]}
